Data set [1] in a line: Cytotoxicity assay (CellTiter-Glo) on normal human dermal fibroblasts. It counts as cell-based. The conditions noted are these: normal human dermal fibroblasts (NHDF). How it is done: The cytotoxicity of the compounds was evaluated in nontumor normal human dermal fibroblasts (NHDF) purchased from ATCC (PCS-201-012, Manassas, VA, USA). The cells were negatively tested for the presence of mycoplasma (cat. #: LT07-318 MycoAlert Mycoplasma Detection kit, Lonza). The cells were cultivated in DMEM high glucose 4.5 g/L medium (cat. #: R8758, Merck, Germany). The medium was supplemented with 10% fetal bovine serum (cat. #: F7524, Merck, Germany; inactivated at 56 °C for 30 min) and 1.0% of L-glutamine (cat. #: G7513, Merck, Germany) without antibiotics. Cells were seeded in 384-well format white micro plates (cat. #: 164610, Nunc, Thermo Fisher Scientific, USA) at a concentration of 60,000 cells per mL and left to rest overnight. Next day, 1 and 10 μM concentrations of the tested compounds were added in triplicates. The cells were cultivated at 37 °C and 5% CO2 for 72 h after which a luminescent cell viability assay (CellTiter-Glo 2.0, cat. #: Promega, Madison, USA) was added. The plate was left on a shaker (350 rpm) in the dark for 20 min at RT. Luminescence was measured by a Spark multimode reader from Tecan (Tecan Group Ltd., Switzerland). The signal of the compound-treated cells was related to the value of the untreated control, which was arbitrarily set to 100% viability.
For orientation: Cellular ATP, detected with luciferase, serves as a proxy for viable cell number.

The nature of data set [2]: Plasma stability assay, human plasma. It counts as in vitro ADME. The conditions noted are these: pooled plasma, read-out: Plasma stability % remaining at 6 h, hum. Here is the method:
[…] The reactions were terminated by adding 4 vol of ice-cold methanol, and the samples were then mixed vigorously, frozen at −20 °C for 1 h, and left overnight at 8 °C. After that, the samples were centrifuged, and the supernatant was analyzed by means of LC–MS/MS Sciex 6500 triple quadrupole (Sciex, Framingham, MA, USA). Zero time points were prepared by adding ice-cold methanol to the compound prior to the addition of the plasma.

The nature of data set [3]: Plasma stability assay, rat plasma. It counts as in vitro ADME.
A further data set can be described thus: in vitro. It counts as in vitro ADME. The conditions noted are these: human, Caco-2; for Papp A→B at 3 h, 5 µM: read-out: Caco-2 permeability Papp A–B. Here is the method: A Transwell system consisting of two compartments separated by a monolayer of differentiated Caco-2 cells was employed for the intestinal permeability evaluation. Thanks to the ability of Caco-2 cells to become polarized, bidirectional transport (A–B and B–A) could be measured and the efflux ratio calculated.
The transepithelial bidirectional transport of tested compounds (5 μM, pH 7.4/7.4) across the Caco-2 monolayers was studied using the BD BioCoat HTS Caco-2 assay system (BD Biosciences, Bedford, MA) as described in detail elsewhere.[47] Aliquots were collected from the donor and acceptor compartment at the end of the transport period (3 h), the integrity of monolayers was verified using Lucifer Yellow dye, and the compounds were quantified using LC–MS/MS (Triple Quad 6500+, Sciex). The apparent permeability coefficient (Papp) was calculated from the following equation: Papp = (dQ/dt)/C0 × A, where dQ/dt is the rate of absorption of the drug across the cells, C0 is the donor compartment concentration at time zero, and A is the area of the monolayer. The efflux ratio was expressed as (Papp B–A)/(Papp A–B). Recovery (%) was determined as (total compound mass in donor and receiver compartments at the end of the incubation/initial compound mass in the donor compartment) × 100.
On the technique in general: Caco-2 monolayers are a common model of the intestinal barrier.

Data set [4] in a line: Microsomal stability, human liver microsomes. The format is in vitro ADME. As to conditions: pooled liver microsomes, pH 7.4; human liver microsomes 0.5 mg/mL, 10 μM compound; read-out: Microsomal stability CLint, hum. How it is done:
(§1) . Zero time points were prepared by adding ice-cold methanol to a mixture of the compound with cofactors prior to the addition of microsomes. […]. Intrinsic clearance (CLint) was calculated using the following formula: [drawing 1] where V = incubation volume per milligram of microsomal protein (μL/mg) and t1/2 = microsomal half-life.
On the technique in general: Liver microsomes are vesicles of endoplasmic reticulum, rich in cytochrome P450 enzymes.

A short description of data set [5]: Microsomal stability, rat liver microsomes. As to conditions: pH 7.4; rat liver microsomes. The format is in vitro ADME. Here is the method: as §1
The mark [6] stands for this setting: 10 uM, read-out: NHDF viability at 10 uM (supplement csv).
[7] abbreviates: 10 μM, untreated control = 100%, read-out: NHDF Viability 10 μM.

The values below come from PMC11215778 (Journal of Medicinal Chemistry, 2024).

Where two headings read alike, the source gives them in different places.

One may read the viability as a read-out of living cells in per cent, often relative to untreated cells. On to `O=C(OC[C@H]1CCCN1)[C@@H]1[C@H]2C[C@H]3c4[nH]c5ccccc5c4CCN3C[C@@H]2CC[C@@H]1O` [Compound 4a, 17-α-Hydroxyyohimban-16-α-carboxylic acid (R)-Pyrrolidin-2-ylmethyl Ester], for which, in data set [1], the viability at 72 h, 1 µM came out at 113%. For the same compound, the viability at 72 h, 10 µM in data set [1] (setting [6]) and in data set [1] (setting [7]) was 106% throughout. Also, the fraction remaining at 6 h, 5 μM is 88% in data set [2] (human plasma, 5 μM, 37 °C) and 68% in data set [3].

With `O=C(OC[C@@H]1CCCN1)[C@@H]1[C@H]2C[C@H]3c4[nH]c5ccccc5c4CCN3C[C@@H]2CC[C@@H]1O` [Compound 4b, 17-α-Hydroxyyohimban-16-α-carboxylic acid (S)-Pyrrolidin-2-ylmethyl Ester], the viability at 72 h, 1 µM in data set [1] came out at 112%. Moreover, the viability at 72 h, 10 µM in data set [1] (setting [6]) and in data set [1] (setting [7]) was 103% each time.

As for `CNCCOC(=O)[C@@H]1[C@H]2C[C@H]3c4[nH]c5ccccc5c4CCN3C[C@@H]2CC[C@@H]1O` [Compound 4c, 17-α-Hydroxyyohimban-16-α-carboxylic Acid 2-(Methylamino)ethyl Ester], the viability at 72 h, 1 µM in data set [1] was 104%. Besides, the viability at 72 h, 10 µM in data set [1] (setting [6]) and in data set [1] (setting [7]) was 91% throughout. Further, the amount remaining at 6 h, 5 μM in data set [2] (human plasma, 5 μM, 37 °C) is 91 ± 5%; in data set [3] it was 80 ± 1%.

Broadly, the Papp A→B is how fast a substance crosses the layer from the apical side. By Papp B→A is commonly meant how fast a substance crosses the layer from the basolateral side. Take `O=C(OC1CCNCC1)[C@@H]1[C@H]2C[C@H]3c4[nH]c5ccccc5c4CCN3C[C@@H]2CC[C@@H]1O` [Compound 4d, 17-α-Hydroxyyohimban-16-α-carboxylic Acid Piperidine-4-yl Ester]: the viability at 72 h, 1 µM in data set [1] came out at 107%. The viability at 72 h, 10 µM in data set [1] (setting [6]) and in data set [1] (setting [7]) was 104% each time. Besides, the share remaining at 6 h, 5 μM amounted to 100 ± 1% in data set [2] (human plasma, 5 μM, 37 °C) and 87% in data set [3]. Besides, in the data set “in vitro”, the recovery at 3 h, 5 µM came to 101%. In the data set “in vitro” (5 μM, pH 7.4/7.4, 3 h), the Papp A→B at 3 h, 5 µM was determined as 1 ×10⁻⁶ cm/s. Moreover, the Papp B→A at 3 h, 5 µM in the data set “in vitro” (5 μM, pH 7.4/7.4, 3 h, read-out: Caco-2 permeability Papp B–A) worked out at 2 ×10⁻⁶ cm/s.

With `O=C(OC1CCCNC1)[C@@H]1[C@H]2C[C@H]3c4[nH]c5ccccc5c4CCN3C[C@@H]2CC[C@@H]1O` (stereo partly drawn) [Compound 4e, 17-α-Hydroxyyohimban-16-α-carboxylic Acid Piperidine-3-yl Ester], the viability at 72 h, 1 µM in data set [1] was 84%. For the same compound, the viability at 72 h, 10 µM in data set [1] (setting [6]) and in data set [1] (setting [7]) was 82% in each case.

As for `O=C(OCC1CNC1)[C@@H]1[C@H]2C[C@H]3c4[nH]c5ccccc5c4CCN3C[C@@H]2CC[C@@H]1O` [Compound 4f, 17-α-Hydroxyyohimban-16-α-carboxylic Acid Azetidin-3-ylmethyl Ester], the viability at 72 h, 1 µM in data set [1] was found to be 119%. In addition, the viability at 72 h, 10 µM in data set [1] (setting [6]) and in data set [1] (setting [7]) was 119% each time.

The term microsomal CLint denotes a measure of how fast metabolising enzymes remove a compound, apart from limits set by blood flow. For the compound `O=C(OC[C@H]1CCN1)[C@@H]1[C@H]2C[C@H]3c4[nH]c5ccccc5c4CCN3C[C@@H]2CC[C@@H]1O` [Compound 4g, 17-α-Hydroxyyohimban-16-α-carboxylic Acid (R)-Azetidin-2-ylmethyl Ester], in data set [1], the viability at 72 h, 1 µM is 120%. The viability at 72 h, 10 µM in data set [1] (setting [6]) and in data set [1] (setting [7]) was 120% throughout. For the same compound, the amount remaining at 6 h, 5 μM stood at 118 ± 3% in data set [2] (human plasma, 5 μM, 37 °C) and 134 ± 1% in data set [3]. Besides, the figures for the microsomal CLint at 10 µM in data set [4] and in data set [5] were 4 ± 1 µL/min/mg and 1 ± 1 µL/min/mg, respectively.

For the compound `O=C(OC[C@@H]1CCN1)[C@@H]1[C@H]2C[C@H]3c4[nH]c5ccccc5c4CCN3C[C@@H]2CC[C@@H]1O` [Compound 4h, 17-α-Hydroxyyohimban-16-α-carboxylic acid (S)-Azetidin-2-ylmethyl Ester], the viability at 72 h, 1 µM in data set [1] amounted to 116%. In addition, the viability at 72 h, 10 µM in data set [1] (setting [6]) and in data set [1] (setting [7]) was 118% each time.

Turning to `O=C(OC[C@@H]1CCNC1)[C@@H]1[C@H]2C[C@H]3c4[nH]c5ccccc5c4CCN3C[C@@H]2CC[C@@H]1O` [Compound 4i, 17-α-Hydroxyyohimban-16-α-carboxylic Acid (R)-Pyrrolidin-3-ylmethyl Ester], the viability at 72 h, 1 µM in data set [1] was 109%. Moreover, the viability at 72 h, 10 µM in data set [1] (setting [6]) and in data set [1] (setting [7]) was 107% each time. In addition, the share remaining at 6 h, 5 μM amounted to 88 ± 3% in data set [2] (human plasma, 5 μM, 37 °C) and 62 ± 7% in data set [3]. Also, the microsomal CLint at 10 µM in data set [4] came out at 4 ± 1 µL/min/mg; in data set [5], 1 ± 1 µL/min/mg.

In the case of `O=C(OC[C@H]1CCNC1)[C@@H]1[C@H]2C[C@H]3c4[nH]c5ccccc5c4CCN3C[C@@H]2CC[C@@H]1O` [Compound 4j, 17-α-Hydroxyyohimban-16-α-carboxylic Acid (S)-Pyrrolidin-3-ylmethyl Ester], the viability at 72 h, 1 µM in data set [1] was 104%. Moreover, the viability at 72 h, 10 µM in data set [1] (setting [6]) and in data set [1] (setting [7]) was 102% each time. Also, the fraction remaining at 6 h, 5 μM in data set [2] (human plasma, 5 μM, 37 °C) was 92%; in data set [3] it was 76 ± 3%. The microsomal CLint at 10 µM is 2 µL/min/mg in data set [4] and 1 ± 1 µL/min/mg in data set [5].

In the case of `O=C(O[C@H]1CCNC1)[C@@H]1[C@H]2C[C@H]3c4[nH]c5ccccc5c4CCN3C[C@@H]2CC[C@@H]1O` [Compound 4l, 17-α-Hydroxyyohimban-16-α-carboxylic Acid (S)-Pyrrolidin-3-yl Ester], the viability at 72 h, 1 µM in data set [1] was 100%. In addition, the viability at 72 h, 10 µM in data set [1] (setting [6]) and in data set [1] (setting [7]) was 94% throughout. Also, the fraction remaining at 6 h, 5 μM stood at 100% in data set [2] (human plasma, 5 μM, 37 °C) and 80 ± 1% in data set [3]. In “in vitro”, the recovery at 3 h, 5 µM was 112%. In addition, in “in vitro” (5 μM, pH 7.4/7.4, 3 h), the Papp A→B at 3 h, 5 µM came to 1 ×10⁻⁶ cm/s.

Consider `O=C(OC1CNC1)[C@@H]1[C@H]2C[C@H]3c4[nH]c5ccccc5c4CCN3C[C@@H]2CC[C@@H]1O` [Compound 4m, 17-α-Hydroxyyohimban-16-α-carboxylic Acid Azetidin-3-yl Ester], for which, in data set [1], the viability at 72 h, 1 µM is 77%. In addition, the viability at 72 h, 10 µM in data set [1] (setting [6]) and in data set [1] (setting [7]) was 77% each time. The amount remaining at 6 h, 5 μM in data set [2] (human plasma, 5 μM, 37 °C) was found to be 100 ± 3%; in data set [3], 70 ± 2%. The microsomal CLint at 10 µM in data set [4] worked out at 3 ± 2 µL/min/mg. The compound also registered a recovery at 3 h, 5 µM in “in vitro” of 101%. In the data set “in vitro” (5 μM, pH 7.4/7.4, 3 h), the Papp A→B at 3 h, 5 µM was 1 ×10⁻⁶ cm/s.

As for `O=C(N[C@H]1CCNC1)[C@@H]1[C@H]2C[C@H]3c4[nH]c5ccccc5c4CCN3C[C@@H]2CC[C@@H]1O` [Compound 5a, 17-α-Hydroxyyohimban-16-α-carboxylic Acid (S)-N-(Pyrrolidin-3-yl)amide], the viability at 72 h, 1 µM in data set [1] turned out to be 90%. For the same compound, the viability at 72 h, 10 µM in data set [1] (setting [6]) and in data set [1] (setting [7]) was 88% throughout. Also, the figures for the amount remaining at 6 h, 5 μM in data set [2] (human) and in data set [3] were 100 ± 1% and 114 ± 2%, respectively.

As for `O=C(NC1CNC1)[C@@H]1[C@H]2C[C@H]3c4[nH]c5ccccc5c4CCN3C[C@@H]2CC[C@@H]1O` [Compound 5b, 17-α-Hydroxyyohimban-16-α-carboxylic Acid N-(Azetidin-3-yl)amide], in data set [1], the viability at 72 h, 1 µM came to 88%. The viability at 72 h, 10 µM in data set [1] (setting [6]) and in data set [1] (setting [7]) was 88% each time.
